What was measured:
IDO1 [1] = target: T1, IDO1 (Homo sapiens, UniProt P14902); assay: Hela cell-based IDO1 functional assay (kynurenine readout, IFN-γ induced); settings: Hela cells, 100 ng/ml human IFN-γ, 18 h; Table 1 and text
T1 construct: host or cells: HeLa cells, IDO1 induced with 100 ng/ml human IFN-γ
Protocol: To perform the Hela cell based IDO1 assay, Hela cells were seeded at 50,000 cells per well into 96-well microplate in 100 μl of DMEM 10% fetal bovine serum 1% Penicillin-Streptomycin. Cells were incubated at 37°C and 5% CO2 overnight.
The next day 100 μl per well of diluted inhibitor in growth medium was added at a final concentration of 100 ng/ml human IFN-γ. Cells were incubated at 37°C in a CO2 incubator for 18 h. The next day 140 μl of medium was moved into a new 96-well plate and 20 μl of 3.05 N trichloroacetic acid (TCA) was added. The plate was incubated at 50°C for 30 min to hydrolyze N-formylkynurenine. The plate was then centrifuged at 2,500 rpm for 10 min to remove sediments. 100 μl of supernatant per well was transferred to another 96-well plate and mixed with 100 μl of 2% (w/v) 4-(Dimethylamino)benzaldehyde in acetic acid. The plate was incubated at room temperature for 10 min, the yellow color derived from kynurenine was recorded by measuring absorbance at 480 nm using a microplate reader (PerkinElmer, USA).
To investigate the IDO1 inhibition activities of the synthesized derivatives, all the new compounds and icotinib were screened via Hela cell-based functional assay using methods described in the literature ([Yue et al., 2009]; [Malachowski et al., 2016]; [Qian et al., 2016]).

[2] = system: Human renal epithelial cell (293T); assay: Cytotoxicity assay, Cell Counting Kit-8 (CCK8), 72 h; type: cell-based; settings: HEK-293T, 293T cells, CCK-8, 72 h
Protocol: Cytotoxity of the chosen compounds was evaluated by the Cell Counting Kit-8 (CCK8, DOJINDO, Japan) assay. The cells were seeded at a density of 2,000 cells per well into 96-well microplate in 100 μl of growth medium. Cells were incubated at 37°C and 5% CO2 overnight. The next day, 100 μl per well of diluted inhibitor in growth medium was added with the final concentration from 0.1nM to 100 μM. The cells were treated with DMSO as control. A series of dilutions were made in 0.1% DMSO in assay medium so that the final concentration of DMSO was 0.1% in all the treatments. Cells were incubated at 37°C and 5% CO2 for 72 h. Then, 10 μl of CCK8 was added to each well. The plates were incubated at 37°C for 2 h, and the plates were recorded by measuring the absorbance at 450 nm with the reference wavelength of 630 nm using an EnVisionMultilabel Reader (PerkinElmer). The IC50 values were calculated and determined by the concentration causing a half-maximal percent activity. All assays were conducted with three parallel samples and three repetitions.
Next, several compounds with submicromolar level of IDO1 inhibitory activities were chosen for further study. Human renal epithelial cell (293T) was chosen for CCK-8 assay to evaluation the bioactivity of these compounds.

IDO1 [3] = system: IDO1; design: method as in Nelp et al., 2018; settings: previously reported; ref Nelp et al., 2018; cited from earlier work

T1 sequence (P14902 whole entry): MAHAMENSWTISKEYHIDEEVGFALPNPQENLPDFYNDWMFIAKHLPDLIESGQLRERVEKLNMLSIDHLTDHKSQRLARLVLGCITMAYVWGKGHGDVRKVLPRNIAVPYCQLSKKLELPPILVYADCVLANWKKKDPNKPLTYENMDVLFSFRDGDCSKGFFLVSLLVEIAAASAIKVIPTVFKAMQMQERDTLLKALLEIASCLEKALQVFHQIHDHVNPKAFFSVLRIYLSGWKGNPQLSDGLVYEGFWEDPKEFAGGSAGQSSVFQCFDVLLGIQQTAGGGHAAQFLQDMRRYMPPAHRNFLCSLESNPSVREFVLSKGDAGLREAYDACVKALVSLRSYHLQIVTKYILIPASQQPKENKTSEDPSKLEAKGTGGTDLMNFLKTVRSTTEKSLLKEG

| Structure (SMILES) | IC50 (IDO1 [1]) [µM] | IC50 [2] [µM] | IC50 (IDO1 [3]) [µM] |
| --- | --- | --- | --- |
| c1ccc(-n2cc(-c3cccc(Nc4ncnc5cc6c(cc45)OCCOCCOCCO6)c3)nn2)cc1 [a6, (7,8,10,11,13,14-Hexahydro-6,9,12,15-tetraoxa-1,3-diaza-cyclododeca[b]naphthalen-4-yl)-[3-(1-phenyl-1H-[1,2,3]triazol-4-yl)-phenyl]-amine] | 0.77 ± 0.13 | 42.8 ± 11.8 | – |
| FC(F)(F)c1ccc(-n2cc(-c3cccc(Nc4ncnc5cc6c(cc45)OCCOCCOCCO6)c3)nn2)cc1 [a12, (7,8,10,11,13,14-Hexahydro-6,9,12,15-tetraoxa-1,3-diaza-cyclododeca[b]naphthalen-4-yl)-{3-[1-(4-trifluoromethyl-phenyl)-1H-[1,2,3]triazol-4-yl]-phenyl}-amine] | > 100 | – | – |
| Brc1ccccc1-n1cc(-c2cccc(Nc3ncnc4cc5c(cc34)OCCOCCOCCO5)c2)nn1 [a11, {3-[1-(2-Bromo-phenyl)-1H-[1,2,3]triazol-4-yl]-phenyl}-(7,8,10,11,13,14-hexahydro-6,9,12,15-tetraoxa-1,3-diaza-cyclododeca[b]naphthalen-4-yl)-amine] | 1 ± 0.49 | – | – |
| Fc1cccc(-n2cc(-c3cccc(Nc4ncnc5cc6c(cc45)OCCOCCOCCO6)c3)nn2)c1 [a1, {3-[1-(3-Fluoro-phenyl)-1H-[1,2,3]triazol-4-yl]-phenyl}-(7,8,10,11,13,14-hexahydro-6,9,12,15-tetraoxa-1,3-diaza-cyclododeca[b]naphthalen-4-yl)-amine] | 4.25 ± 0.08 | – | – |
| Fc1ccc(-n2cc(-c3cccc(Nc4ncnc5cc6c(cc45)OCCOCCOCCO6)c3)nn2)cc1 [a3, {3-[1-(4-Fluoro-phenyl)-1H-[1,2,3]triazol-4-yl]-phenyl}-(7,8,10,11,13,14-hexahydro-6,9,12,15-tetraoxa-1,3-diaza-cyclododeca[b]naphthalen-4-yl)-amine] | 18.2 ± 1.47 | – | – |
| COc1ccccc1-n1cc(-c2cccc(Nc3ncnc4cc5c(cc34)OCCOCCOCCO5)c2)nn1 [a4, (7,8,10,11,13,14-Hexahydro-6,9,12,15-tetraoxa-1,3-diaza-cyclododeca[b]naphthalen-4-yl)-{3-[1-(2-methoxy-phenyl)-1H-[1,2,3]triazol-4-yl]-phenyl}-amine] | 1.32 ± 0.17 | – | – |
| COc1cccc(-n2cc(-c3cccc(Nc4ncnc5cc6c(cc45)OCCOCCOCCO6)c3)nn2)c1 [a9, (7,8,10,11,13,14-Hexahydro-6,9,12,15-tetraoxa-1,3-diaza-cyclododeca[b]naphthalen-4-yl)-{3-[1-(3-methoxy-phenyl)-1H-[1,2,3]triazol-4-yl]-phenyl}-amine] | 1.41 ± 0.08 | – | – |
| Brc1ccc(-n2cc(-c3cccc(Nc4ncnc5cc6c(cc45)OCCOCCOCCO6)c3)nn2)cc1 [a10, {3-[1-(4-Bromo-phenyl)-1H-[1,2,3]triazol-4-yl]-phenyl}-(7,8,10,11,13,14-hexahydro-6,9,12,15-tetraoxa-1,3-diaza-cyclododeca[b]naphthalen-4-yl)-amine] | 2.79 ± 0.46 | – | – |
| Ic1ccccc1-n1cc(-c2cccc(Nc3ncnc4cc5c(cc34)OCCOCCOCCO5)c2)nn1 [a8, (7,8,10,11,13,14-Hexahydro-6,9,12,15-tetraoxa-1,3-diaza-cyclododeca[b]naphthalen-4-yl)-{3-[1-(2-iodo-phenyl)-1H-[1,2,3]triazol-4-yl]-phenyl}-amine] | 2.5 ± 0.43 | – | – |
| Clc1ccccc1-n1cc(-c2cccc(Nc3ncnc4cc5c(cc34)OCCOCCOCCO5)c2)nn1 [a5, {3-[1-(2-Chloro-phenyl)-1H-[1,2,3]triazol-4-yl]-phenyl}-(7,8,10,11,13,14-hexahydro-6,9,12,15-tetraoxa-1,3-diaza-cyclododeca[b]naphthalen-4-yl)-amine] | 4.88 ± 0.42 | – | – |
| Clc1cccc(-n2cc(-c3cccc(Nc4ncnc5cc6c(cc45)OCCOCCOCCO6)c3)nn2)c1 [a7, {3-[1-(3-Chloro-phenyl)-1H-[1,2,3]triazol-4-yl]-phenyl}-(7,8,10,11,13,14-hexahydro-6,9,12,15-tetraoxa-1,3-diaza-cyclododeca[b]naphthalen-4-yl)-amine] | 2.82 ± 0.26 | 3.1 ± 0.2 | – |
| Clc1ccc(-n2cc(-c3cccc(Nc4ncnc5cc6c(cc45)OCCOCCOCCO6)c3)nn2)cc1 [a2, {3-[1-(4-Chloro-phenyl)-1H-[1,2,3]triazol-4-yl]-phenyl}-(7,8,10,11,13,14-hexahydro-6,9,12,15-tetraoxa-1,3-diaza-cyclododeca[b]naphthalen-4-yl)-amine] | 2.9 ± 0.37 | – | – |

Further lines, with some results ahead:

| IC50 (IDO1 [1]) [µM] | Structure (SMILES) | IC50 [2] [µM] | IC50 (IDO1 [3]) [µM] |
| --- | --- | --- | --- |
| 1.5 ± 0.45 | Brc1ccccc1Cn1cc(-c2cccc(Nc3ncnc4cc5c(cc34)OCCOCCOCCO5)c2)nn1 [a19, {3-[1-(2-Bromo-benzyl)-1H-[1,2,3]triazol-4-yl]-phenyl}-(7,8,10,11,13,14-hexahydro-6,9,12,15-tetraoxa-1,3-diaza-cyclododeca[b]naphthalen-4-yl)-amine] | – | – |
| 4.62 ± 0.19 | Fc1ccccc1Cn1cc(-c2cccc(Nc3ncnc4cc5c(cc34)OCCOCCOCCO5)c2)nn1 [a13, {3-[1-(2-Fluoro-benzyl)-1H-[1,2,3]triazol-4-yl]-phenyl}-(7,8,10,11,13,14-hexahydro-6,9,12,15-tetraoxa-1,3-diaza-cyclododeca[b]naphthalen-4-yl)-amine] | – | – |
| 0.76 ± 0.07 | COc1cccc(Cn2cc(-c3cccc(Nc4ncnc5cc6c(cc45)OCCOCCOCCO6)c3)nn2)c1 [a20, (7,8,10,11,13,14-Hexahydro-6,9,12,15-tetraoxa-1,3-diaza-cyclododeca[b]naphthalen-4-yl)-{3-[1-(3-methoxy-benzyl)-1H-[1,2,3]triazol-4-yl]-phenyl}-amine] | 3.3 ± 1.3 | – |
| 0.59 ± 0.05 | Cc1ccc(Cn2cc(-c3cccc(Nc4ncnc5cc6c(cc45)OCCOCCOCCO6)c3)nn2)cc1 [a15, (7,8,10,11,13,14-Hexahydro-6,9,12,15-tetraoxa-1,3-diaza-cyclododeca[b]naphthalen-4-yl)-{3-[1-(4-methyl-benzyl)-1H-[1,2,3]triazol-4-yl]-phenyl}-amine] | 0.16 ± 0.05 | – |
| 0.56 ± 0.16 | c1ccc(Cn2cc(-c3cccc(Nc4ncnc5cc6c(cc45)OCCOCCOCCO6)c3)nn2)cc1 [a18, [3-(1-Benzyl-1H-[1,2,3]triazol-4-yl)-phenyl]-(7,8,10,11,13,14-hexahydro-6,9,12,15-tetraoxa-1,3-diaza-cyclododeca[b]naphthalen-4-yl)-amine] | 3.08 ± 0.59 | – |
| 1.51 ± 0.11 | Ic1ccccc1Cn1cc(-c2cccc(Nc3ncnc4cc5c(cc34)OCCOCCOCCO5)c2)nn1 [a16, (7,8,10,11,13,14-Hexahydro-6,9,12,15-tetraoxa-1,3-diaza-cyclododeca[b]naphthalen-4-yl)-{3-[1-(2-iodo-benzyl)-1H-[1,2,3]triazol-4-yl]-phenyl}-amine] | – | – |
| 0.37 ± 0.02 | Brc1cccc(Cn2cc(-c3cccc(Nc4ncnc5cc6c(cc45)OCCOCCOCCO6)c3)nn2)c1 [a17, {3-[1-(3-Bromo-benzyl)-1H-[1,2,3]triazol-4-yl]-phenyl}-(7,8,10,11,13,14-hexahydro-6,9,12,15-tetraoxa-1,3-diaza-cyclododeca[b]naphthalen-4-yl)-amine] | 3.1 ± 0.2 | – |
| 0.81 ± 0.35 | Fc1ccc(CCn2cc(-c3cccc(Nc4ncnc5cc6c(cc45)OCCOCCOCCO6)c3)nn2)cc1 [a22, (3-{1-[2-(4-Fluoro-phenyl)-ethyl]-1H-[1,2,3]triazol-4-yl}-phenyl)-(7,8,10,11,13,14-hexahydro-6,9,12,15-tetraoxa-1,3-diaza-cyclododeca[b]naphthalen-4-yl)-amine] | 2.6 ± 0.17 | – |
| 2.57 ± 0.44 | C#Cc1cccc(Nc2ncnc3cc4c(cc23)OCCOCCOCCO4)c1 [icotinib] | – | – |
| 0.79 ± 0.21 | Cc1ccccc1Cn1cc(-c2cccc(Nc3ncnc4cc5c(cc34)OCCOCCOCCO5)c2)nn1 [a14, (7,8,10,11,13,14-Hexahydro-6,9,12,15-tetraoxa-1,3-diaza-cyclododeca[b]naphthalen-4-yl)-{3-[1-(2-methyl-benzyl)-1H-[1,2,3]triazol-4-yl]-phenyl}-amine] | 3.35 ± 0.89 | – |
| 0.68 ± 0.44 | Brc1cc(Br)cc(Cn2cc(-c3cccc(Nc4ncnc5cc6c(cc45)OCCOCCOCCO6)c3)nn2)c1 [a21, {3-[1-(3,5-Dibromo-benzyl)-1H-[1,2,3]triazol-4-yl]-phenyl}-(7,8,10,11,13,14-hexahydro-6,9,12,15-tetraoxa-1,3-diaza-cyclododeca[b]naphthalen-4-yl)-amine] | 0.74 ± 0.15 | – |

— publication PMC7555427, “Discovery of Icotinib-1,2,3-Triazole Derivatives as IDO1 Inhibitors” (Frontiers in Pharmacology, 2020)
